The source of these data is patent US20110200535A1, “DAA-PYRIDINE AS PERIPHERAL BENZODIAZEPINE RECEPTOR LIGAND FOR DIAGNOSTIC IMAGING AND PHARMACEUTICAL TREATMENT” (BAYER SCHERING PHARMA AKTIENGESELLSCHAFT, priority 2008, published 2011).

Series [1] deals with T1, peripheral benzodiazepine receptor (PBR) (Rattus norvegicus, UniProt P16257).
T1 construct: from tissue; host or cells: rat brain (hippocampus, cerebellum) after i.v. tracer injection
As to the kind of experiment: Ex vivo autoradiography of brain sections, rat kainic acid induced epilepsy model. It is filed as in vivo. The conditions noted are these: rat kainic acid model, 30 min ex vivo autoradiography. Here is the method:
Using a rat kainic acid induced epilepsy model and respective sham controls the accumulation of [^18F]-2d and [^18F]-5d was visualized ex vivo. In brief, epilepsy was induced in rats by injecting kainic acid i.p. At day eight after the start of the kainic acid treatment [^18F]-2d and [^18F]-5d were injected into the tail vein of the rats and their sham treated controls (PBS instead of kainic acid) at a dose of 25.8-35.8 MBq (approximately 1.0 μg) per rat. Thirty minutes after intravenous injection the rats were sacrificed, the brains were taken out, snap frozen and sliced transversally in a cryostat. The slices were exposed to PhosphoImager plates over night. The resulting autoradiographic signals were analyzed qualitatively and quantitatively (FIG. 2.1 A and C, 2.2 A and C). […] To determine the specificity of the [^18F]-2d and [^18F]-5d binding, kainic acid treated rats were co-injected with [^19F]-2e and [^19F]-5e, respectively.
The autoradiographic signals were quantified. The signal intensity in a hippocampal region of interest (ROI) was measured and compared to a ROI in the cerebellum, that was used as reference region.

Series [2] can be described thus: Biodistribution of [^18F]-radioactivity in healthy male NMRI mice after intravenous injection (gamma counter). It is filed as in vivo. The note with it: mice, brain, 2 min to 30 min. Here is the method:
The biodistribution of [^18F]-2d and [^18F]-5d was investigated in healthy male NMRI mice (28.3-35.6 g body weight, n=3 animals per time point) at 2, 5, 30, 60 and 180/240 min after intravenous injection of 0.264 MBq [^18F]-2d and 0.268 MBq [^18F]-5d per animal, respectively. Until the indicated time points urine and faeces were quantitatively collected. At the respective time points the mice were sacrificed and the tissues were removed. [^18F]-radioactivity was analyzed in a gamma counter (Tab. 1.1, 2.1 and 1.2, 2.2).

As for `COc1ccc(OCC[18F])c(CN(C(C)=O)c2cc(F)ccc2Oc2ccccc2)c1` [[^18F]-FEDAA1106, reference compound], in series [1], the “Hipp/Cereb ratio (signal-to-background ratio, hippocampus/cerebellum)” value came to 1.2±0.2. Besides, the “Elimination from mouse brain, 2 min/30 min ratio of brain uptake (% ID/g)” value in series [2] was 2.0; in series [2] (listed as FEDAA) it was 2.00.
Regarding `COc1ccc(OCC[18F])c(CN(C(C)=O)c2cccnc2Cc2ccc(F)cc2)c1` [compound 21], the “Elimination from mouse brain, 2 min/30 min ratio of brain uptake (% ID/g)” value in series [2] is 4.85.
